Laboratory results: patent US9587266B2, “Mutant luciferases” (University of Massachusetts, priority 2011, dated 2017)

Legend:
[1] = biological target: T1, L342A luciferase (Photinus pyralis, UniProt P08659, L342A); test: Bioluminescence emission scan; format: biochemical
T1 construct: The full firefly (Photinus pyralis) luciferase gene was PCR amplified from pGL3 (Promega); GST (N, cleaved yes); made in house; host or cells: E. coli JM109
Method: (§1) Purified mutant luciferases were used in bioluminescence emission and burst kinetics scans.
(§2) Luciferase was rapidly injected into a cuvette containing substrate, and the emission from 400-800 nm was recorded in a SPEX FluoroMax-3 fluorimeter with closed excitation slits.

[2] = biological target: T2, R218K luciferase (Photinus pyralis, UniProt P08659, R218K); test: Bioluminescence emission scan; format: biochemical
T2 construct: The full firefly (Photinus pyralis) luciferase gene was PCR amplified from pGL3 (Promega); GST (N, cleaved yes); made in house; host or cells: E. coli JM109
T2 sequence (P08659 whole entry R218K): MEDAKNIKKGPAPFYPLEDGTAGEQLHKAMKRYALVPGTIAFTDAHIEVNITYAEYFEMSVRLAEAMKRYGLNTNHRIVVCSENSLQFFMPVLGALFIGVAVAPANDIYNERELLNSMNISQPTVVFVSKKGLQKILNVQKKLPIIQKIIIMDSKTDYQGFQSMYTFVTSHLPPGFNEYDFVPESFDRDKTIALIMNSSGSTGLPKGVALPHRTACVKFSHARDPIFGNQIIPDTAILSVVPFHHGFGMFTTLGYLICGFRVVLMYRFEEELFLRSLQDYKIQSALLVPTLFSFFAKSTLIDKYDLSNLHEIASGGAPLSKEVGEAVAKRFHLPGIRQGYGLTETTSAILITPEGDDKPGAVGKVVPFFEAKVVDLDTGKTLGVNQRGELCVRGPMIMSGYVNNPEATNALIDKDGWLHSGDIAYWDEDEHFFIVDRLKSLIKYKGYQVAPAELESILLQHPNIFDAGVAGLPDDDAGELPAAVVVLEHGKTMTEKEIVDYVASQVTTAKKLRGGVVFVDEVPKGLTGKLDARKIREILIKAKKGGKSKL
Method: as §1, §2

[3] = biological target: T3, L286M + S347A luciferase (Photinus pyralis, UniProt P08659, L286M/S347A); test: Bioluminescence emission scan; format: biochemical
T3 construct: The full firefly (Photinus pyralis) luciferase gene was PCR amplified from pGL3 (Promega); GST (N, cleaved yes); made in house; host or cells: E. coli JM109
T3 sequence (P08659 whole entry L286M/S347A): as the sequence (P08659 whole entry R218K) above, with K218R, L286M, S347A counted along it
Method: as §1, §2

[4] = biological target: T4, WT luciferase (Photinus pyralis, UniProt P08659); format: biochemical; conditions: Table 3
T4 construct: The full firefly (Photinus pyralis) luciferase gene was PCR amplified from pGL3 (Promega); GST (N, cleaved yes); made in house; host or cells: E. coli JM109
T4 sequence (P08659 whole entry): as the sequence (P08659 whole entry R218K) above, with K218R counted along it
Method: (§3) Purified mutant luciferases were used in bioluminescence emission and burst kinetics scans. Each purified protein in 20 mM Tris pH 7.6, 0.1 mM EDTA, 1 mM TCEP and 0.4 mg/mL BSA was added to 2× substrate in 20 mM Tris pH 7.6, 0.1 mM EDTA, 8 mM MgSO4, 4 mM ATP, and 1 mM TCEP in a cuvette.
as §2

[5] = biological target: T5, R218K + L342A luciferase (Photinus pyralis, UniProt P08659, L342A/R218K); format: biochemical
T5 construct: The full firefly (Photinus pyralis) luciferase gene was PCR amplified from pGL3 (Promega); GST (N, cleaved yes); made in house; host or cells: E. coli JM109
T5 sequence (P08659 whole entry R218K/L342A): as the sequence (P08659 whole entry R218K) above, with L342A counted along it
Method: as §3, §2

[6] = tested on: Nc1ccc2nc(C3=N[C@@H](C(=O)O)CS3)sc2c1; test: purified protein, by the assay type; conditions: 3 minutes post-substrate addition, pH 7.6

T1 sequence (P08659 whole entry L342A): as the sequence (P08659 whole entry R218K) above, with K218R, L342A counted along it

`O=C(O)C1CSC(c2nc3cc4c(cc3s2)NCCC4)=N1` (stereo not shown) [CycLuc7, 2-(5,6,7,8-Tetrahydro-thiazolo[4,5-g]quinolin-2-yl)-4,5-dihydro-thiazole-4-carboxylic acid] was tested, and the “Maximum Emission Wavelength of Selected Substrate” value [1] was 611 nm, the “Maximum Emission Wavelength of Selected Substrate” value [2] was 620 nm and the “Maximum Emission Wavelength of Selected Substrate” value [3] was 604 nm. For the same compound, the “Maximum Emission Wavelength of Selected Substrate” value [4] was 607 nm and the “Maximum Emission Wavelength of Selected Substrate” value [5] was 616 nm.
In the case of `CN1CCCc2cc3nc(C4=NC(C(=O)O)CS4)sc3cc21` (stereo not shown) [CycLuc8, 2-(5-Methyl-5,6,7,8-tetrahydro-thiazolo[4,5-g]quinolin-2-yl)-4,5-dihydro-thiazole-4-carboxylic acid], the “Maximum Emission Wavelength of Selected Substrate” value [1] is reported as 614 nm, the “Maximum Emission Wavelength of Selected Substrate” value [2] is reported as 632 nm and the “Maximum Emission Wavelength of Selected Substrate” value [3] is reported as 605 nm. The “Maximum Emission Wavelength of Selected Substrate” value [4] was 610 nm and the “Maximum Emission Wavelength of Selected Substrate” value [5] was 628 nm.
`CCCO` [Propanol] was tested, and the “Maximum Emission Wavelength of Selected Substrate” value [1] was 607 nm, the “Maximum Emission Wavelength of Selected Substrate” value [2] was 609 nm and the “Maximum Emission Wavelength of Selected Substrate” value [3] was 593 nm. For the same compound, the “Maximum Emission Wavelength of Selected Substrate” value [4] was 608 nm and the “Maximum Emission Wavelength of Selected Substrate” value [5] was 609 nm.
Compound “L286M mutant luciferase (Photinus pyralis; L286M)” has a Km ([6]; other: L286M luciferase) of 4.35 ± 0.2 µM.
“R218K mutant luciferase (Photinus pyralis; R218K)” showed a Km ([6]; other: R218K luciferase) of 15.2 ± 1.1 µM.
“S347A mutant luciferase (Photinus pyralis; S347A)” was tested, and the Km ([6]; other: S347A luciferase) was 31.0 ± 0.4 µM.
Compound “T251S mutant luciferase (Photinus pyralis; T251S)” has a Km ([6]; other: T251S luciferase) of 17.3 ± 0.3 µM.
